# “And” between values parts separate entries of the source, which are not always exact repeats. Identical values can stand only once.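 Cells were grown in 96-well plates and exposed to each compound for 48 hours at five concentrations; endpoints were interpolated linearly between bracketing concentrations, or set to the highest concentration if not reached. GI50 marks 50% less growth. TGI: concentration producing complete growth inhibition.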 The source made the active and inactive calls. Cut-off read from the data, not from the text of the source: active = GI50 below about 0.43 µM; inactive = the rest.
# Tests used:
# Assay in all cases: NCI-60 cell line screen, 48 h
# [1] = tested on: HOP-18 NSCLC
# [2] = tested on: SF-268 CNS
# [3] = tested on: OVCAR-8 ovarian
# [4] = tested on: A498 renal
# [5] = tested on: SN12C renal
# [6] = tested on: HCC-2998 colon
# [7] = tested on: DMS 114 small cell lung
# [8] = tested on: NCI-H522 lung
# [9] = tested on: SK-MEL-2 melanoma
# [10] = tested on: T-47D breast
SMILES,TGI [1],TGI [2],TGI [3],TGI [4],TGI [5],TGI [6],TGI [7],TGI [8],TGI [9],outcome [1],GI50 [10],TGI [10],GI50 [2],GI50 [3],GI50 [4],GI50 [5],GI50 [6],GI50 [7],GI50 [8],GI50 [9]
O=C(/C=C/c1ccc(O)cc1)c1cc(Cl)ccc1O,> 100 µM,> 100 µM,> 100 µM,> 100 µM,> 100 µM,> 100 µM,67.4 µM,36.2 µM,–,–,–,–,–,–,–,–,–,–,–,–
ClCCCCOC1CCCCO1 (stereo not given),> 100 µM,> 100 µM,> 100 µM,> 100 µM,> 100 µM,> 100 µM,> 100 µM,> 100 µM,> 100 µM,–,–,–,–,–,–,–,–,–,–,–
Nc1nc2ncn(CC(O)COC(=O)c3ccccc3)c2c(=O)[nH]1 (stereo not given),> 100 µM,> 100 µM,> 100 µM,> 100 µM,> 100 µM,–,> 100 µM,> 100 µM,> 100 µM,–,–,–,–,–,–,–,–,–,–,–
COC(CC1(OC)OC(=O)C=C1N)OC (stereo not given),> 100 µM,> 100 µM,> 100 µM,> 100 µM,> 100 µM,> 100 µM,> 100 µM,> 100 µM,> 100 µM,–,–,–,–,–,–,–,–,–,–,–
N#CC1C(=O)NC(=O)C1=O (stereo not given),> 100 µM,> 100 µM,> 100 µM,> 100 µM,> 100 µM,> 100 µM,> 100 µM,> 100 µM,> 100 µM,–,–,–,–,–,–,–,–,–,–,–
CCCCCCCCCCCC(=O)OC(COC(N)=O)COc1ccc(Cl)cc1 (stereo not given),95.7 µM,42.5 µM,33.6 µM,> 100 µM,70 µM,96.1 µM,33.1 µM,31.5 µM,74.4 µM,–,–,–,–,–,–,–,–,–,–,–
COC(=O)C1=C(\O)C[C@@]2(C)CC[C@@H](C(=O)OC)C2C/C=C\1C(=O)OC (stereo not given in full),> 100 µM,> 100 µM,> 100 µM,75.3 µM,> 100 µM,> 100 µM,> 100 µM,> 100 µM,–,–,–,–,–,–,–,–,–,–,–,–
CCc1ccc([O-])c(C=NCCCN(C)CCCN=Cc2cc(C)ccc2[O-])c1.[Co+3].[N-]=[N+]=[N-],–,50 µg/mL and > 150 µg/mL,50 µg/mL and > 150 µg/mL,50 µg/mL and 127 µg/mL,50 µg/mL and > 150 µg/mL,50 µg/mL and > 150 µg/mL,> 150 µg/mL,50 µg/mL and > 150 µg/mL,50 µg/mL and 135 µg/mL,inactive,40 µg/mL,50 µg/mL,21.9 µg/mL and 53.3 µg/mL,31.9 µg/mL and 49.1 µg/mL,50 µg/mL and 79.7 µg/mL,50 µg/mL and 61.8 µg/mL,50 µg/mL and 123 µg/mL,136 µg/mL,50 µg/mL and > 150 µg/mL,50 µg/mL and 44.7 µg/mL
CN1CCc2cc3c4cc2C1Cc1ccc(cc1)Oc1cc(ccc1O)CC1c2c(cc(O)c(c2O4)O3)CCN1C (stereo not given),18.5 µM,6.18 µM,8.55 µM,–,14.8 µM,4.11 µM,4.58 µM,11.1 µM,3.18 µM,–,–,–,–,–,–,–,–,–,–,–
CC1CC(c2ccc(Cl)c(Cl)c2)=Nc2ccccc2S1 (stereo not given),> 100 µM,> 100 µM,> 100 µM,> 100 µM,> 100 µM,> 100 µM,> 100 µM,> 100 µM,–,–,–,–,–,–,–,–,–,–,–,–
Cc1ccc2nc3c(C)cc(=O)cc-3sc2c1,> 100 µM,> 100 µM,> 100 µM,–,48.8 µM,70.9 µM,45.5 µM,45.1 µM,52.7 µM,–,–,–,–,–,–,–,–,–,–,–
NCC1(N2CCOCC2)C2CCCC21CNc1ccccc1 (stereo not given),> 100 µM,> 100 µM,> 100 µM,–,> 100 µM,> 100 µM,> 100 µM,> 100 µM,–,–,–,–,–,–,–,–,–,–,–,–
O=C1C(Br)=CC2(C=C1Br)CCNc1c(O)c3c4c(c12)=NCCC=4C=N3,3.4 µM,1.18 µM,0.511 µM,3.56 µM,0.344 µM,1.21 µM,0.101 µM,0.0542 µM,0.428 µM,–,–,0.165 µM,–,–,–,–,–,–,–,–
COC(=O)C1(O)c2ccccc2N=C2C1CCN2C (stereo not given),> 100 µM,> 100 µM,> 100 µM,> 100 µM,> 100 µM,> 100 µM,> 100 µM,> 100 µM,> 100 µM,–,–,–,–,–,–,–,–,–,–,–
COC(=O)NC(=O)c1cn(C2CCCCC2)c(=O)[nH]c1=O,> 100 µM,> 100 µM,> 100 µM,> 100 µM,> 100 µM,> 100 µM,> 100 µM,> 100 µM,> 100 µM,–,–,–,–,–,–,–,–,–,–,–
c1ccc2c(c1)N=C(c1ccc3ccccc3c1)CC(c1cccc3ccccc13)S2 (stereo not given),> 100 µM,> 100 µM,> 100 µM,75.4 µM,> 100 µM,40.3 µM,> 100 µM,75.4 µM,> 100 µM,–,–,–,–,–,–,–,–,–,–,–
NC(=O)c1ncn(Cc2ccccc2)c1CNC(N)=S,> 100 µM,> 100 µM,> 100 µM,–,> 100 µM,> 100 µM,> 100 µM,–,–,–,–,–,–,–,–,–,–,–,–,–
CC1(C)CC(N2CCN(C3CC(C)(C)NC(C)(C)C3)CC2)CC(C)(C)N1,> 100 µM,> 100 µM,> 100 µM,> 100 µM,> 100 µM,> 100 µM,> 100 µM,> 100 µM,–,–,–,–,–,–,–,–,–,–,–,–
Cc1ccc(NC(=O)C(=O)CC(=O)c2ccccc2)cc1C,> 100 µM,> 100 µM,> 100 µM,> 100 µM,> 100 µM,> 100 µM,> 100 µM,> 100 µM,–,–,–,–,–,–,–,–,–,–,–,–
Nc1ccc(C(=O)Nc2ccccc2N)cc1,> 100 µM,> 100 µM,> 100 µM,> 100 µM,> 100 µM,> 100 µM,> 100 µM,47.2 µM,> 86.1 µM,–,–,–,–,–,–,–,–,–,–,–
O=C1c2ccccc2C(=O)c2c1ccc1c2N=C(c2ccc(Br)cc2)CC(c2cccc3ccccc23)N1 (stereo not given),> 100 µM,> 100 µM,> 100 µM,–,> 100 µM,> 100 µM,> 100 µM,> 100 µM,> 100 µM,–,–,–,–,–,–,–,–,–,–,–
O=C(NC1C(=O)NNC1c1ccccc1Cl)c1ccccc1 (stereo not given),> 100 µM,> 100 µM,> 100 µM,> 100 µM,> 100 µM,> 100 µM,> 100 µM,> 100 µM,> 100 µM,–,–,–,–,–,–,–,–,–,–,–

# Source: PubChem BioAssay (NCI)
